According to US20150099703A1, “TREATMENT OF POSTPARTUM HAEMORRHAGE WITH CHEMICALLY MODIFIED HEPARIN OR HEPARAN SULPHATE AND A UTEROTONIC AGENT” (DILAFOR AB, priority 2012, published 2015):
Positions of bridges follow the written chain, without caps; N, C: chain ends. Non-standard residues stand in square brackets, D forms with d. Residues, ends and D or L forms follow the SMILES beside them. Orn = NCCC[C@H](N)C(=O)O; Mpa = O=C(O)CCS

Columns and labels:
[1] = system: Human uterine smooth muscle cells; assay: Intracellular Ca2+ measurement (Fluo-4, confocal live cell imaging) in uterine smooth muscle cells; assay type: cell-based
Protocol: Human uterine smooth muscle cells were established in a culture. Intracellular Ca^2+ was measured with the calcium indicator dye Fluo-4 and live cell imaging with confocal microscopy was established for the cells.

[2] = heparin, comparison; cited from earlier work

Question: For `CC[C@H](C)[C@@H]1NC(=O)[C@H](Cc2ccc(O)cc2)NC(=O)[C@@H](N)CSSC[C@@H](C(=O)N2CCC[C@H]2C(=O)N[C@@H](CC(C)C)C(=O)NCC(N)=O)NC(=O)[C@H](CC(N)=O)NC(=O)[C@H](CCC(N)=O)NC1=O` [oxytocin], which “Ca2+-influx to the cytosol” value ([1]; cells treated with oxytocin alone) is on record?
Answer: Ca^2+-influx to the cytosol was demonstrated

Question: What about the “concentration giving maximum effect on Ca2+-influx” value ([1]; oxytocin alone, dose-dependent effect) of the same molecule?
Answer: 0.05 IU/ml

Question: Which “effect on oxytocin stimulated Ca2+-transport” value ([1]; 100 μM, 30 min of incubation) does the source give for `NCCOB(c1ccccc1)c1ccccc1` [2-APB, 2-Aminoethoxydiphenyl borate] here?
Answer: decreased strongly

Question: What about the “effect on oxytocin/DF01 stimulated Ca2+-transport” value ([1]; 100 μM, 30 min of incubation) of the same molecule?
Answer: decreased strongly

Question: For heparin, which “corresponding (subcutaneous) bioavailability” value [2] is on record?
Answer: about 10%

Question: Which “effect on the combination oxytocin/DF01 effect on Ca2+ transport” value ([1]; concentration of 10^−6 M) does the source give for `CCOc1ccc(C[C@H]2NC(=O)CCSSC[C@@H](C(=O)N3CCC[C@H]3C(=O)N[C@@H](CCCN)C(=O)NCC(N)=O)NC(=O)[C@H](CC(N)=O)NC(=O)[C@H]([C@@H](C)O)NC(=O)[C@H]([C@@H](C)CC)NC2=O)cc1` [Atosiban] ([Mpa][dY](Et)ITNCP[Orn]G-NH2; disulfide 1-6) here?
Answer: clearly inhibited

Question: What about the “effect on the oxytocin effect on Ca2+ transport” value ([1]; concentration of 10^−6 M) of the same molecule?
Answer: clearly inhibited
